Experimental data as given in US4211794A, “N,N-Disubstituted aminomethylphenylethanolamines” (Pfizer Inc., priority 1979, dated 1980).

Tests used:
B-16 cells = test: Peritoneal Exudate Cell Mediated Cytotoxicity in Vitro (macrophages from drug-injected mice); type: cell-based; conditions: Mus musculus, B16, effector:target 15:1, 24 hours at 37°, read-out: % Cytotoxicity (percent release drug-treated minus vehicle treated); for cytotoxicity at 1 mg/kg: 1 mg/kg injected to mice; for cytotoxicity at 5 mg/kg: 5 mg/kg injected to mice; for cytotoxicity at 25 mg/kg: 25 mg/kg injected to mice
Protocol: Peritoneal Exudate Cell Mediated Cytotoxicity in Vitro
Peritoneal exudate cells (PEC) from normal mice injected with immune potentiators or drug vehicle were harvested by gentle lavage with 3 ml cold RPMI 1640 medium (Grand Island Biological Co., N.Y.) supplemented with 5 units of heparin per ml of medium. Macrophages were identified morphologically, counted, and adjusted to 7.5×10^5 cells per ml of tissue culture medium; 0.2 ml volumes were added to microtiter wells containing 10^4 B-16 cells with ^125 IUDR label (effector: target cell ratio=15:1). After 24 hours at 37° in 5% CO2, supernatants were decanted and the adherent cells washed 3 times with pre-warmed RPMI 1640; the supernatant and washings were pooled and retained for counting. The adherent cells were treated with 1% sodium dodecyl sulfate (SDS) at room temperature for 30 minutes. The SDS-treated cells were harvested and the cells washed 3 times with RPMI 1640; cells and washings were pooled for counting. Supernatants and cells were counted in a Searle 1185 gamma counter. Results were expressed as: [formula]
The table below gives the percent cytotoxicity for 1-I, 2-I and 3-I wherein Percent Cytotoxicity equals (Percent release from drug-treated) minus (Percent release from vehicle treated).

Sarcoma 180J = Sarcoma 180J Model for Assessment of Tumor Rejection; type: in vivo, CD-1 mice (female); conditions: for %ILS (percent life span): day 1 after 10^6 S-180J cells i.p., observed until death or 40 days, TWEEN 80/glycerol aqueous suspension; for numbers of 40 day survivors: six mice per group
Protocol: Sarcoma 180J Model for Assessment of Tumor Rejection
Six female CD-1 mice (20-25 g) per group received 10^6 S-180J cells (5-8 days old) intraperitoneally (i.p.) on day O. The animals then received formulated drug (0.1 ml) at the desired dose on day 1 following tumor cell injection. The animals were observed until death or 40 days, whichever occurred first. Results using compounds 1-I, 2-I, 3I and 4I are expressed as percent life span (% ILS).
^ a compounds were formulated in TWEEN 80/glycerol aqueous
^b Numbers in parenthesis are numbers of 40 day survivors.

[1] = test system: encephalomyocarditis (EMC) virus; test: Prophylactic use against encephalomyocarditis (EMC) viral infection in mice; type: in vivo, mice (female albino); conditions: single intraperitoneal, 18-24 hours before EMC challenge, tenth day after challenge, average of 2 runs
Protocol: Prophylactic use of compounds (1-I), (2-I) and (3-I) against infection by encephalomyocardis viral infection in mice
Three groups of ten female albino micce (20-25 g. body weight) were given single 0.5 ml. intraperitoneal injections containing dosage levels of 1.5, 5, and 15 mg. of the appropriate compound/kg. body weight, respectively. A fourth control group was given no such injection. Eighteen to twenty-four hours later all four groups were challenged with a 0.2 ml. subcutaneous injection containing 20-30 times the LD50, the dosage level causing a 50% death rate in ten days, of encephalomyocarditis (EMC) virus. The following relative average survival rates were found from an average of 2 such runs for compounds 1-I, 2-I and 3-I.
Antiviral activity is expressed as the average relative survival (Sr) of 2 runs of experimental groups compared to the controls on the tenth day after challenge. Sr is defined by the formula [formula] wherein Sr=relative survival;
Sx =percent survival after ten days in experimental group;
Xi =number of survivors on the ith day in experimental group;
ei =number of survivors on the ith day in control group.

Q: `CCCCCCCCCCCCCCCCN(CCCCCCCCCCCCCCCC)Cc1cccc(C(O)CNC(C)C)c1` (stereo not shown) [Compound 3-I, N-isopropyl-2-[meta-N,N-di-n-hexadecylaminomethylphenyl]ethanolamine] was tested. Which cytotoxicity at 1 mg/kg (B-16 cells) did it give?
A: The cytotoxicity at 1 mg/kg was 42.4%.

Q: And the cytotoxicity at 5 mg/kg (B-16 cells)?
A: Its cytotoxicity at 5 mg/kg is 35.1%.

Q: And the cytotoxicity at 25 mg/kg (B-16 cells)?
A: The cytotoxicity at 25 mg/kg was 33.4%.

Q: And the “%ILS (percent life span)” value (Sarcoma 180J; 5 mg/kg)?
A: The value was 154%.

Q: What about the “numbers of 40 day survivors” value (Sarcoma 180J; 5 mg/kg) of the same compound?
A: The value was 2.

Q: And the “%ILS (percent life span)” value (Sarcoma 180J; 15 mg/kg)?
A: The value was 185%.

Q: And the “numbers of 40 day survivors” value (Sarcoma 180J; 15 mg/kg)?
A: Its value is 4.

Q: And the “%ILS (percent life span)” value (Sarcoma 180J; 50 mg/kg)?
A: Its value is 212%.

Q: And the “numbers of 40 day survivors” value (Sarcoma 180J; 50 mg/kg)?
A: Its value is 6.

Q: And the “Average Relative Survival (Sr)” value ([1]; 1.5 mg/kg)?
A: The value was 27.

Q: And the “Average Relative Survival (Sr)” value ([1]; 5 mg/kg)?
A: Its value is 54.

Q: What about the “Average Relative Survival (Sr)” value ([1]; 15 mg/kg) of the same compound?
A: The value was 87.5.

Q: With `CCCCCCCCCCCCCCCCN(CCCCCCCCCCCCCCCC)Cc1cccc(C(O)CN)c1` (stereo not shown) [Compound 4-I, 2-[meta-N,N-di-n-hexadecylaminomethylphenyl]ethanolamine] as the compound, how does the “%ILS (percent life span)” value (Sarcoma 180J; 5 mg/kg) read?
A: The value was 125%.

Q: What about the “%ILS (percent life span)” value (Sarcoma 180J; 15 mg/kg) of the same compound?
A: Its value is 181%.

Q: And the “numbers of 40 day survivors” value (Sarcoma 180J; 15 mg/kg)?
A: Its value is 4.

Q: And the “%ILS (percent life span)” value (Sarcoma 180J; 50 mg/kg)?
A: The value was 212%.

Q: And the “numbers of 40 day survivors” value (Sarcoma 180J; 50 mg/kg)?
A: The value was 6.

Q: How did the cytotoxicity at 1 mg/kg (B-16 cells) turn out when `CCCCCCCCCCCCCCCCN(CCCCCCCCCCCCCCCC)Cc1cccc(C(O)CNCC)c1` (stereo not shown) [Compound 1-I, N-ethyl-2-[meta-N,N-di-n-hexadecylaminomethylphenyl]ethanolamine] was run?
A: Its cytotoxicity at 1 mg/kg is 35.7%.

Q: And the cytotoxicity at 5 mg/kg (B-16 cells)?
A: The cytotoxicity at 5 mg/kg was 25.6%.

Q: What about the cytotoxicity at 25 mg/kg (B-16 cells) of the same compound?
A: Its cytotoxicity at 25 mg/kg is 23.8%.

Q: And the “%ILS (percent life span)” value (Sarcoma 180J; 5 mg/kg)?
A: The value was 150%.

Q: And the “numbers of 40 day survivors” value (Sarcoma 180J; 5 mg/kg)?
A: The value was 1.

Q: What about the “%ILS (percent life span)” value (Sarcoma 180J; 15 mg/kg) of the same compound?
A: The value was 210%.

Q: What about the “numbers of 40 day survivors” value (Sarcoma 180J; 15 mg/kg) of the same compound?
A: Its value is 4.

Q: And the “%ILS (percent life span)” value (Sarcoma 180J; 50 mg/kg)?
A: Its value is 235%.

Q: And the “numbers of 40 day survivors” value (Sarcoma 180J; 50 mg/kg)?
A: Its value is 5.

Q: And the “Average Relative Survival (Sr)” value ([1]; 1.5 mg/kg)?
A: Its value is 24.5.

Q: What about the “Average Relative Survival (Sr)” value ([1]; 5 mg/kg) of the same compound?
A: Its value is 65.5.

Q: What about the “Average Relative Survival (Sr)” value ([1]; 15 mg/kg) of the same compound?
A: The value was 70.

Q: What does the source list for `CCCCCCCCCCCCCCCCN(CCCCCCCCCCCCCCCC)Cc1cccc(C(O)CNC(C)(C)C)c1` (stereo not shown) [Compound 2-I, N-t-butyl-2-[meta-N,N-di-n-hexadecylamino-methylphenyl]ethanolamine]?
A: cytotoxicity at 1 mg/kg (B-16 cells): 31.2%; cytotoxicity at 5 mg/kg (B-16 cells): 33.6%; cytotoxicity at 25 mg/kg (B-16 cells): 27.2%; %ILS (percent life span) (Sarcoma 180J; 5 mg/kg): 154%; numbers of 40 day survivors (Sarcoma 180J; 5 mg/kg): 1; %ILS (percent life span) (Sarcoma 180J; 15 mg/kg): 134%; %ILS (percent life span) (Sarcoma 180J; 50 mg/kg): 160%; numbers of 40 day survivors (Sarcoma 180J; 50 mg/kg): 2; Average Relative Survival (Sr) ([1]; 1.5 mg/kg): 42.5; Average Relative Survival (Sr) ([1]; 5 mg/kg): 62.5; Average Relative Survival (Sr) ([1]; 15 mg/kg): 65.5
